In patent US20100099561A1, “HETEROBICYCLIC ALKYLTHIO-BRIDGED ISOXAZOLINES” (E.I. DU PONT DE NEMOURS AND COMPANY, priority 2008, published 2010):

Tests used:
Assay type in all cases: in vivo
[1] = test system: morningglory (Ipomoea spp.); assay: Test A postemergence, morningglory; conditions: 0 to 100 scale (0 no effect, 100 complete control)
Procedure, shortened: (§1)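 Greenhouse pre/postemergence test, loam–sand soil. Postemergence plants one- to two-leaf, 2–10 cm. Visual injury rating ~10 d after treatment, 0–100 vs untreated.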

[2] = test system: corn (Zea mays); assay: Test A preemergence, corn; conditions: 0 to 100 scale (0 no effect, 100 complete control)
Procedure, shortened: as §1

[3] = test system: velvetleaf (Abutilon theophrasti); assay: Test A postemergence, velvetleaf; conditions: 0 to 100 scale (0 no effect, 100 complete control)
Procedure, shortened: as §1

[4] = test system: large crabgrass (Digitaria sanguinalis); assay: Test A postemergence, large crabgrass; conditions: 0 to 100 scale (0 no effect, 100 complete control)
Procedure, shortened: as §1

[5] = test system: pigweed (Amaranthus retroflexus); assay: Test A preemergence, pigweed; conditions: 0 to 100 scale (0 no effect, 100 complete control)
Procedure, shortened: as §1

[6] = test system: barnyardgrass (Echinochloa crus-galli); assay: Test B flooded paddy test, barnyardgrass; conditions: Flood
Procedure, shortened: (§2)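 Step one: raise plants to 2 leaves. Step two: flood pots 3 cm over the soil and apply compound into the water, keeping this depth. Step three: after 13–15 greenhouse days, score visually versus controls, 0–100, where 100 means complete control.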

[7] = test system: ducksalad (Heteranthera limosa); assay: Test B flooded paddy test, ducksalad; conditions: Flood, scale 0 to 100
Procedure, shortened: as §2

[8] = test system: wheat (Triticum aestivum); assay: Test A postemergence, wheat; conditions: 0 to 100 scale (0 no effect, 100 complete control)
Procedure, shortened: as §1

[9] = test system: rice (Oryza sativa); assay: Test B flooded paddy test, rice; conditions: Flood, scale 0 to 100
Procedure, shortened: as §2

[10] = test system: barnyardgrass (Echinochloa crus-galli); assay: Test A postemergence, barnyardgrass; conditions: 0 to 100 scale (0 no effect, 100 complete control)
Procedure, shortened: as §1

[11] = test system: umbrella sedge (Cyperus difformis); assay: Test B flooded paddy test, umbrella sedge; conditions: Flood, scale 0 to 100
Procedure, shortened: as §2

[12] = test system: giant foxtail (Setaria faberi); assay: Test A postemergence, giant foxtail; conditions: 0 to 100 scale (0 no effect, 100 complete control)
Procedure, shortened: as §1

[13] = test system: large crabgrass (Digitaria sanguinalis); assay: Test A preemergence, large crabgrass; conditions: 0 to 100 scale (0 no effect, 100 complete control)
Procedure, shortened: as §1

[14] = test system: barnyardgrass (Echinochloa crus-galli); assay: Test A preemergence, barnyardgrass; conditions: 0 to 100 scale (0 no effect, 100 complete control)
Procedure, shortened: as §1

[15] = test system: corn (Zea mays); assay: Test A postemergence, corn; conditions: 0 to 100 scale (0 no effect, 100 complete control)
Procedure, shortened: as §1

[16] = test system: pigweed (Amaranthus retroflexus); assay: Test A postemergence, pigweed; conditions: 0 to 100 scale (0 no effect, 100 complete control)
Procedure, shortened: as §1

[17] = test system: morningglory (Ipomoea spp.); assay: Test A preemergence, morningglory; conditions: 0 to 100 scale (0 no effect, 100 complete control)
Procedure, shortened: as §1

[18] = test system: velvetleaf (Abutilon theophrasti); assay: Test A preemergence, velvetleaf; conditions: 0 to 100 scale (0 no effect, 100 complete control)
Procedure, shortened: as §1

[19] = test system: giant foxtail (Setaria faberi); assay: Test A preemergence, giant foxtail; conditions: 0 to 100 scale (0 no effect, 100 complete control)
Procedure, shortened: as §1

[20] = test system: wheat (Triticum aestivum); assay: Test A preemergence, wheat; conditions: 0 to 100 scale (0 no effect, 100 complete control)
Procedure, shortened: as §1

[21] = 250 g ai/ha, scale 0 to 100 (0 no effect, 100 complete control)

CC1(C)CC([S+]([O-])Cc2c(C(F)(F)F)nc3ccon3c2=O)=NO1 (centres unmarked) [Compound 43]
Plant response rating, Morningglory ([1]; 125 g ai/ha): 0 | Plant response rating, Morningglory ([1]; 500 g ai/ha): 40 | Plant response rating, Corn ([2]; 125 g ai/ha): 0 | Plant response rating, Corn ([2]; 500 g ai/ha): 0 | Plant response rating, Velvetleaf ([3]; 125 g ai/ha): 0 | Plant response rating, Velvetleaf ([3]; 500 g ai/ha): 0 | Plant response rating, Crabgrass, Large ([4]; 125 g ai/ha): 10 | Plant response rating, Crabgrass, Large ([4]; 500 g ai/ha): 60 | Plant response rating, Pigweed ([5]; 125 g ai/ha): 0 | Plant response rating, Pigweed ([5]; 500 g ai/ha): 0 | Plant response rating, Barnyardgrass ([6]; 31 g ai/ha, scale 0 to 100): 0 | Plant response rating, Barnyardgrass ([6]; 62 g ai/ha, scale 0 to 100): 0 | Plant response rating, Barnyardgrass ([6]; 125 g ai/ha, scale 0 to 100): 0 | Plant response rating, Barnyardgrass [6, 21]: 0 | Plant response rating, Ducksalad ([7]; 31 g ai/ha): 0 | Plant response rating, Ducksalad ([7]; 62 g ai/ha): 0 | Plant response rating, Ducksalad ([7]; 125 g ai/ha): 0 | Plant response rating, Ducksalad ([7]; 250 g ai/ha): 25 | Plant response rating, Wheat ([8]; 125 g ai/ha): 0 | Plant response rating, Wheat ([8]; 500 g ai/ha): 0 | Plant response rating, Rice ([9]; 31 g ai/ha): 0 | Plant response rating, Rice ([9]; 62 g ai/ha): 0 | Plant response rating, Rice ([9]; 125 g ai/ha): 0 | Plant response rating, Rice ([9]; 250 g ai/ha): 0 | Plant response rating, Barnyardgrass ([10]; 125 g ai/ha): 40 | Plant response rating, Barnyardgrass ([10]; 500 g ai/ha): 70 | Plant response rating, Sedge, Umbrella ([11]; 31 g ai/ha): 0 | Plant response rating, Sedge, Umbrella ([11]; 62 g ai/ha): 0 | Plant response rating, Sedge, Umbrella ([11]; 125 g ai/ha): 20 | Plant response rating, Sedge, Umbrella ([11]; 250 g ai/ha): 30 | Plant response rating, Foxtail, Giant ([12]; 125 g ai/ha): 30 | Plant response rating, Foxtail, Giant ([12]; 500 g ai/ha): 70 | Plant response rating, Crabgrass, Large ([13]; 125 g ai/ha): 0 | Plant response rating, Crabgrass, Large ([13]; 500 g ai/ha): 60 | Plant response rating, Barnyardgrass ([14]; 125 g ai/ha): 10 | Plant response rating, Barnyardgrass ([14]; 500 g ai/ha): 70 | Plant response rating, Corn ([15]; 125 g ai/ha): 0 | Plant response rating, Corn ([15]; 500 g ai/ha): 40 | Plant response rating, Pigweed ([16]; 125 g ai/ha): 0 | Plant response rating, Pigweed ([16]; 500 g ai/ha): 0 | Plant response rating, Morningglory ([17]; 125 g ai/ha): 0 | Plant response rating, Morningglory ([17]; 500 g ai/ha): 0 | Plant response rating, Velvetleaf ([18]; 125 g ai/ha): 0 | Plant response rating, Velvetleaf ([18]; 500 g ai/ha): 0 | Plant response rating, Foxtail, Giant ([19]; 125 g ai/ha): 0 | Plant response rating, Foxtail, Giant ([19]; 500 g ai/ha): 80 | Plant response rating, Wheat ([20]; 125 g ai/ha): 0 | Plant response rating, Wheat ([20]; 500 g ai/ha): 0

CC1(C)CC(S(=O)(=O)Cc2c(C(F)(F)F)nc3cccnn3c2=O)=NO1 [Compound 45]
Plant response rating, Morningglory ([1]; 125 g ai/ha): 0 | Plant response rating, Morningglory ([1]; 500 g ai/ha): 30 | Plant response rating, Corn ([2]; 125 g ai/ha): 0 | Plant response rating, Corn ([2]; 500 g ai/ha): 0 | Plant response rating, Velvetleaf ([3]; 125 g ai/ha): 0 | Plant response rating, Velvetleaf ([3]; 500 g ai/ha): 0 | Plant response rating, Crabgrass, Large ([4]; 125 g ai/ha): 20 | Plant response rating, Crabgrass, Large ([4]; 500 g ai/ha): 70 | Plant response rating, Pigweed ([5]; 500 g ai/ha): 0 | Plant response rating, Barnyardgrass ([6]; 31 g ai/ha, scale 0 to 100): 0 | Plant response rating, Barnyardgrass ([6]; 62 g ai/ha, scale 0 to 100): 0 | Plant response rating, Barnyardgrass ([6]; 125 g ai/ha, scale 0 to 100): 0 | Plant response rating, Barnyardgrass [6, 21]: 0 | Plant response rating, Ducksalad ([7]; 31 g ai/ha): 0 | Plant response rating, Ducksalad ([7]; 62 g ai/ha): 0 | Plant response rating, Ducksalad ([7]; 125 g ai/ha): 0 | Plant response rating, Ducksalad ([7]; 250 g ai/ha): 0 | Plant response rating, Wheat ([8]; 125 g ai/ha): 0 | Plant response rating, Wheat ([8]; 500 g ai/ha): 0 | Plant response rating, Rice ([9]; 31 g ai/ha): 0 | Plant response rating, Rice ([9]; 62 g ai/ha): 0 | Plant response rating, Rice ([9]; 125 g ai/ha): 0 | Plant response rating, Rice ([9]; 250 g ai/ha): 0 | Plant response rating, Barnyardgrass ([10]; 125 g ai/ha): 30 | Plant response rating, Barnyardgrass ([10]; 500 g ai/ha): 70 | Plant response rating, Sedge, Umbrella ([11]; 31 g ai/ha): 0 | Plant response rating, Sedge, Umbrella ([11]; 62 g ai/ha): 0 | Plant response rating, Sedge, Umbrella ([11]; 125 g ai/ha): 0 | Plant response rating, Sedge, Umbrella ([11]; 250 g ai/ha): 0 | Plant response rating, Foxtail, Giant ([12]; 125 g ai/ha): 20 | Plant response rating, Foxtail, Giant ([12]; 500 g ai/ha): 60 | Plant response rating, Crabgrass, Large ([13]; 125 g ai/ha): 20 | Plant response rating, Crabgrass, Large ([13]; 500 g ai/ha): 90 | Plant response rating, Barnyardgrass ([14]; 125 g ai/ha): 20 | Plant response rating, Barnyardgrass ([14]; 500 g ai/ha): 90 | Plant response rating, Corn ([15]; 125 g ai/ha): 0 | Plant response rating, Corn ([15]; 500 g ai/ha): 0 | Plant response rating, Pigweed ([16]; 125 g ai/ha): 0 | Plant response rating, Pigweed ([16]; 500 g ai/ha): 10 | Plant response rating, Morningglory ([17]; 125 g ai/ha): 0 | Plant response rating, Morningglory ([17]; 500 g ai/ha): 0 | Plant response rating, Velvetleaf ([18]; 125 g ai/ha): 0 | Plant response rating, Velvetleaf ([18]; 500 g ai/ha): 0 | Plant response rating, Foxtail, Giant ([19]; 125 g ai/ha): 30 | Plant response rating, Foxtail, Giant ([19]; 500 g ai/ha): 90 | Plant response rating, Wheat ([20]; 125 g ai/ha): 0 | Plant response rating, Wheat ([20]; 500 g ai/ha): 10
